In ChEMBL document CHEMBL1201862, “PubChem BioAssay data set” (2004):
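Following 48 hours of exposure in 96-well plates, responses at five concentrations were used to interpolate endpoints linearly. GI50: concentration for 50% inhibition of growth.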 Active and inactive are the calls of the source. No stated cut-off is given here; in the data, active = GI50 up to about 1.1 µM and inactive = higher.

Assays:
Test in all cases: inhibition of tumour cell growth, NCI panel, 48 h
TK-10 = system: TK-10
Hs-578T = system: Hs-578T
HT-29 = system: HT-29
SNB-19 = system: SNB-19
SK-MEL-2 = system: SK-MEL-2
NCI/ADR-RES = system: NCI/ADR-RES
KM12 = system: KM12
HL-60 = system: HL-60
U-251 = system: U-251
IGROV-1 = system: IGROV-1
T47D = system: T47D
NCI-H522 = system: NCI-H522
HCC 2998 = system: HCC 2998
EKVX = system: EKVX
HOP-62 = system: HOP-62
786-0 = system: 786-0
UO-31 = system: UO-31
CAKI-1 = system: CAKI-1
HCT-116 = system: HCT-116
SK-MEL-28 = system: SK-MEL-28
OVCAR-4 = system: OVCAR-4
PC-3 = system: PC-3
MCF7 = system: MCF7
RPMI-8226 = system: RPMI-8226
ACHN = system: ACHN
MDA-N = system: MDA-N
K562 = system: K562
RXF 393 = system: RXF 393
M14 = system: M14
CCRF-CEM = system: CCRF-CEM
A549 = system: A549
OVCAR-3 = system: OVCAR-3
LOX IMVI = system: LOX IMVI
HCT-15 = system: HCT-15
MDA-MB-231 = system: MDA-MB-231
MDA-MB-435 = system: MDA-MB-435
COLO 205 = system: COLO 205
BT-549 = system: BT-549
A498 = system: A498
SK-OV-3 = system: SK-OV-3
SN12C = system: SN12C
NCI-H460 = system: NCI-H460
SW-620 = system: SW-620
SR = system: SR
Malme-3M = system: Malme-3M
SK-MEL-5 = system: SK-MEL-5
UACC-257 = system: UACC-257
OVCAR-8 = system: OVCAR-8
NCI-H23 = system: NCI-H23
SF-268 = system: SF-268
MOLT-4 = system: MOLT-4
SF-539 = system: SF-539
UACC-62 = system: UACC-62
DU-145 = system: DU-145
SF-295 = system: SF-295
OVCAR-5 = system: OVCAR-5
SNB-75 = system: SNB-75
NCI-H226 = system: NCI-H226
HOP-92 = system: HOP-92

For `Cc1c(-c2ccccc2)c(C#N)c2nnc(C(N)=O)c(N)n12`, the GI50 (TK-10) was > 100 µM (inactive), the GI50 (Hs-578T) was > 100 µM (inactive) and the GI50 (HT-29) was > 100 µM (inactive). The GI50 (SNB-19) was > 100 µM (inactive), the GI50 (SK-MEL-2) was > 100 µM (inactive) and the GI50 (NCI/ADR-RES) was > 100 µM (inactive). The GI50 (KM12) was > 100 µM (inactive), the GI50 (HL-60) was > 100 µM (inactive) and the GI50 (U-251) was > 100 µM (inactive). The GI50 (IGROV-1) was > 100 µM (inactive), the GI50 (T47D) was > 100 µM (inactive) and the GI50 (NCI-H522) was > 100 µM (inactive). The GI50 (HCC 2998) was > 100 µM (inactive), the GI50 (EKVX) was > 100 µM (inactive) and the GI50 (HOP-62) was > 100 µM (inactive). For the same compound, the GI50 (786-0) was > 100 µM (inactive), the GI50 (UO-31) was > 100 µM (inactive) and the GI50 (CAKI-1) was > 100 µM (inactive). The GI50 (HCT-116) was > 100 µM (inactive), the GI50 (SK-MEL-28) was > 100 µM (inactive) and the GI50 (OVCAR-4) was > 100 µM (inactive). For the same compound, the GI50 (PC-3) was > 100 µM (inactive), the GI50 (MCF7) was > 100 µM (inactive) and the GI50 (RPMI-8226) was > 100 µM (inactive). For the same compound, the GI50 (ACHN) was > 100 µM (inactive), the GI50 (MDA-N) was > 100 µM (inactive) and the GI50 (K562) was > 100 µM (inactive). For the same compound, the GI50 (RXF 393) was > 100 µM (inactive), the GI50 (M14) was > 100 µM (inactive) and the GI50 (CCRF-CEM) was > 100 µM (inactive). For the same compound, the GI50 (A549) was > 100 µM (inactive), the GI50 (OVCAR-3) was > 100 µM (inactive) and the GI50 (LOX IMVI) was > 100 µM (inactive). The GI50 (HCT-15) was > 100 µM, the GI50 (MDA-MB-231) was > 100 µM (inactive) and the GI50 (MDA-MB-435) was > 100 µM (inactive). For the same compound, the GI50 (COLO 205) was > 100 µM (inactive), the GI50 (BT-549) was > 100 µM (inactive) and the GI50 (A498) was > 100 µM (inactive). For the same compound, the GI50 (SK-OV-3) was 70.5 µM (inactive), the GI50 (SN12C) was > 100 µM (inactive) and the GI50 (NCI-H460) was > 100 µM (inactive). For the same compound, the GI50 (SW-620) was > 100 µM (inactive), the GI50 (SR) was > 100 µM (inactive) and the GI50 (Malme-3M) was > 100 µM (inactive). For the same compound, the GI50 (SK-MEL-5) was > 100 µM (inactive), the GI50 (UACC-257) was > 100 µM (inactive) and the GI50 (OVCAR-8) was > 100 µM (inactive). The GI50 (NCI-H23) was > 100 µM (inactive), the GI50 (SF-268) was > 100 µM (inactive) and the GI50 (MOLT-4) was > 100 µM (inactive). For the same compound, the GI50 (SF-539) was > 100 µM (inactive), the GI50 (UACC-62) was > 100 µM (inactive) and the GI50 (DU-145) was > 100 µM (inactive). For the same compound, the GI50 (SF-295) was > 100 µM (inactive) and the GI50 (OVCAR-5) was > 100 µM (inactive).
With `N=C(N)NS(=O)(=O)c1ccc(NC(=O)c2cccc3c(NNc4ccc(S(N)(=O)=O)cc4)c4ccccc4nc23)cc1` the GI50 (TK-10) was > 100 µM (inactive), the GI50 (Hs-578T) was 59.4 µM (inactive) and the GI50 (HT-29) was 47 µM (inactive). For the same compound, the GI50 (SNB-19) was > 100 µM (inactive), the GI50 (SK-MEL-2) was > 100 µM (inactive) and the GI50 (NCI/ADR-RES) was > 100 µM (inactive). The GI50 (KM12) was 50.7 µM (inactive), the GI50 (HL-60) was 30.6 µM (inactive) and the GI50 (U-251) was 44.2 µM (inactive). For the same compound, the GI50 (IGROV-1) was 55.5 µM (inactive), the GI50 (T47D) was 18.7 µM (inactive) and the GI50 (NCI-H522) was 41.1 µM (inactive). The GI50 (HCC 2998) was > 100 µM (inactive), the GI50 (EKVX) was 47.4 µM (inactive) and the GI50 (HOP-62) was > 100 µM (inactive). For the same compound, the GI50 (786-0) was 59.4 µM (inactive), the GI50 (UO-31) was > 100 µM (inactive) and the GI50 (CAKI-1) was > 100 µM (inactive). The GI50 (HCT-116) was 53.8 µM (inactive), the GI50 (SK-MEL-28) was > 100 µM (inactive) and the GI50 (OVCAR-4) was > 100 µM (inactive). The GI50 (PC-3) was 59.7 µM (inactive), the GI50 (MCF7) was 26.4 µM (inactive) and the GI50 (RPMI-8226) was 39.6 µM (inactive). The GI50 (ACHN) was 66.5 µM (inactive), the GI50 (MDA-N) was > 100 µM (inactive) and the GI50 (K562) was 26.6 µM (inactive). For the same compound, the GI50 (RXF 393) was > 100 µM (inactive), the GI50 (M14) was > 100 µM (inactive) and the GI50 (CCRF-CEM) was 34.5 µM (inactive). The GI50 (A549) was > 100 µM (inactive), the GI50 (OVCAR-3) was 36.1 µM (inactive) and the GI50 (LOX IMVI) was 20.4 µM (inactive). For the same compound, the GI50 (HCT-15) was 38.9 µM, the GI50 (MDA-MB-231) was 27.5 µM (inactive) and the GI50 (MDA-MB-435) was 51.6 µM (inactive). The GI50 (COLO 205) was > 100 µM (inactive), the GI50 (BT-549) was 74.5 µM (inactive) and the GI50 (SK-OV-3) was > 100 µM (inactive). For the same compound, the GI50 (SN12C) was 99.3 µM (inactive), the GI50 (NCI-H460) was 83.4 µM (inactive) and the GI50 (SW-620) was 45.4 µM (inactive). The GI50 (SR) was 35 µM (inactive), the GI50 (SNB-75) was > 100 µM (inactive) and the GI50 (Malme-3M) was 34.8 µM (inactive). For the same compound, the GI50 (SK-MEL-5) was 55.6 µM (inactive), the GI50 (UACC-257) was > 100 µM (inactive) and the GI50 (NCI-H226) was > 100 µM (inactive). The GI50 (OVCAR-8) was 66.1 µM (inactive), the GI50 (NCI-H23) was > 100 µM (inactive) and the GI50 (SF-268) was 73.5 µM (inactive). The GI50 (MOLT-4) was 28.2 µM (inactive), the GI50 (SF-539) was > 100 µM (inactive) and the GI50 (UACC-62) was > 100 µM (inactive). The GI50 (HOP-92) was 25.3 µM (inactive), the GI50 (DU-145) was > 100 µM (inactive) and the GI50 (SF-295) was > 100 µM (inactive). The GI50 (OVCAR-5) was > 100 µM (inactive).
For `CN(Cc1cnc2nc(N)nc(N)c2n1)c1ccc(C(=O)NC(CCC(=O)NC(CC(P(=O)(O)O)P(=O)(O)O)C(=O)O)C(=O)O)cc1` (centres undefined), the GI50 (TK-10) was > 100 µM (inactive), the GI50 (Hs-578T) was > 100 µM (inactive) and the GI50 (HT-29) was > 100 µM (inactive). The GI50 (SNB-19) was > 100 µM (inactive), the GI50 (SK-MEL-2) was > 100 µM (inactive) and the GI50 (NCI/ADR-RES) was > 100 µM (inactive). For the same compound, the GI50 (U-251) was > 100 µM (inactive), the GI50 (IGROV-1) was > 100 µM (inactive) and the GI50 (T47D) was > 100 µM (inactive). For the same compound, the GI50 (NCI-H522) was > 100 µM (inactive), the GI50 (EKVX) was > 100 µM (inactive) and the GI50 (HOP-62) was > 100 µM (inactive). The GI50 (786-0) was > 100 µM (inactive), the GI50 (UO-31) was > 100 µM (inactive) and the GI50 (HCT-116) was > 100 µM (inactive). The GI50 (SK-MEL-28) was > 100 µM (inactive), the GI50 (OVCAR-4) was > 100 µM (inactive) and the GI50 (PC-3) was > 100 µM (inactive). For the same compound, the GI50 (MCF7) was > 100 µM (inactive), the GI50 (ACHN) was > 100 µM (inactive) and the GI50 (MDA-N) was > 100 µM (inactive). For the same compound, the GI50 (RXF 393) was > 100 µM (inactive), the GI50 (M14) was > 100 µM (inactive) and the GI50 (A549) was > 100 µM (inactive). The GI50 (OVCAR-3) was > 100 µM (inactive), the GI50 (LOX IMVI) was > 100 µM (inactive) and the GI50 (HCT-15) was > 100 µM. For the same compound, the GI50 (MDA-MB-231) was > 100 µM (inactive), the GI50 (MDA-MB-435) was > 100 µM (inactive) and the GI50 (COLO 205) was > 100 µM (inactive). The GI50 (BT-549) was > 100 µM (inactive), the GI50 (SK-OV-3) was > 100 µM (inactive) and the GI50 (SN12C) was > 100 µM (inactive). For the same compound, the GI50 (NCI-H460) was > 100 µM (inactive), the GI50 (SW-620) was > 100 µM (inactive) and the GI50 (SR) was > 100 µM (inactive). For the same compound, the GI50 (SNB-75) was > 100 µM (inactive), the GI50 (Malme-3M) was > 100 µM (inactive) and the GI50 (SK-MEL-5) was > 100 µM (inactive). For the same compound, the GI50 (UACC-257) was > 100 µM (inactive), the GI50 (NCI-H226) was > 100 µM (inactive) and the GI50 (OVCAR-8) was > 100 µM (inactive). For the same compound, the GI50 (NCI-H23) was > 100 µM (inactive), the GI50 (SF-268) was > 100 µM (inactive) and the GI50 (MOLT-4) was > 100 µM (inactive). For the same compound, the GI50 (UACC-62) was > 100 µM (inactive), the GI50 (HOP-92) was > 100 µM (inactive) and the GI50 (DU-145) was > 100 µM (inactive). For the same compound, the GI50 (SF-295) was > 100 µM (inactive) and the GI50 (OVCAR-5) was > 100 µM (inactive).
